In ChEMBL document CHEMBL4476868, “Benzimidazole derivatives and uses thereof” (2017):
pIC50: −log10 of the molar value.

target: Acetyl-coenzyme A synthetase, cytoplasmic (Homo sapiens, UniProt Q9NR19); assay: Inhibition of N-terminal 6x-histidine tagged human ACSS2 expressed in insect cells assessed as reduction in pyrophosphate production using CoA and ATP incubated for 30 mins by pyrophosphatase coupled enzymatic assay
Sequence (Q9NR19 whole entry): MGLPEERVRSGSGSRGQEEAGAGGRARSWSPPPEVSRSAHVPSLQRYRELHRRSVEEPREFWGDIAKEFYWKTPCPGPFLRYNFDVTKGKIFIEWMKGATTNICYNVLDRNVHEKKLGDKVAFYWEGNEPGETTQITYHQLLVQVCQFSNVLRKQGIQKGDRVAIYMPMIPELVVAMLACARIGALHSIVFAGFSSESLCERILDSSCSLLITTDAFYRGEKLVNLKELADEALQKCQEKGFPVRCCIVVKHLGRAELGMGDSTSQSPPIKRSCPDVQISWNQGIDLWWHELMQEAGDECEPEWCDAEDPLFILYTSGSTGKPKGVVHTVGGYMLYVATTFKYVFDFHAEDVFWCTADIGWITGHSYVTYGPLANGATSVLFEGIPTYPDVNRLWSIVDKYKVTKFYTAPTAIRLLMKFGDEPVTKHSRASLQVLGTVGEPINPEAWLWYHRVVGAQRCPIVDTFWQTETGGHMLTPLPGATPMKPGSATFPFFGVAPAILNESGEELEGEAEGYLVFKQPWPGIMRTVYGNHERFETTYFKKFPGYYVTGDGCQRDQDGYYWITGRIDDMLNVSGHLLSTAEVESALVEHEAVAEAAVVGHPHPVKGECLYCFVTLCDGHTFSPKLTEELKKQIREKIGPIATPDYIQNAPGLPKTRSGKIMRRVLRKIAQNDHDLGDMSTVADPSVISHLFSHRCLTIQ

Structure (SMILES)	pIC50
CCn1cc(-c2ccc3nc(C(O)(c4ccccc4)c4ccccc4)n(CC)c3c2)cn1	6.60 to 7.30
CCn1c(C(O)(c2ccccc2)c2ccccc2)nc2ccc(C(O)CO)cc21 (stereo unspecified)	6.60 to 7.30
CCn1c(C(O)(c2ccccc2)c2ccccc2)nc2ccc(S(=O)(=O)NC[C@@H](C)O)cc21	6.60 to 7.30
CCn1c(C(O)(c2ccccc2)c2ccccc2)nc2ccc(OCC(=O)NC)cc21	6.00 to 6.60
CCn1c(C(O)(c2ccccc2)c2ccccc2)nc2ccc(C(=O)NOCCO)cc21	6.60 to 7.30
CCn1c(C(O)(c2ccccc2)c2ccccc2)nc2ccc(C(OC(C)=O)C(F)(F)COC(C)=O)cc21 (stereo unspecified)	6.60 to 7.30
CCOc1ccc2c(c1)nc(C(O)(c1ccccc1)c1ccccc1)n2C	6.60 to 7.30
C[C@@H](O)CNC(=O)c1ccc2nc(C(O)(c3ccccc3)c3ccccc3)n(CCF)c2c1	6.60 to 7.30
CCn1c(C(O)(c2ccccc2)c2ccccc2)nc2ccc(C(=O)NC[C@H](C)O)c(F)c21	6.60 to 7.30
CCn1c(C(O)(c2ccccc2)c2ccccc2F)nc2ccc(C(=O)NCCO)cc21 (stereo unspecified)	6.60 to 7.30
CCn1c(C(O)(c2ccc(F)cc2F)c2ccc(F)cc2F)nc2ccc(C(=O)NC[C@@H](C)O)cc21	6.60 to 7.30
Cn1ccc(NC(=O)c2ccc3nc(C(O)(c4ccccc4F)c4ccccc4F)n(CCO)c3c2)n1	6.60 to 7.30
Cn1cc(NC(=O)c2ccc3nc(C(O)(c4ccccc4)c4ccccc4)n(CCO)c3c2)cn1	6.60 to 7.30
CCn1c(C(O)(c2ccccc2)c2ccccc2)nc2ccc(C(=O)Nc3ccccc3)cc21	6.60 to 7.30
CCn1c(C(O)(c2ccc(F)cc2)c2ncccc2F)nc2ccc(CCCO)cc21 (stereo unspecified)	6.60 to 7.30
Cn1c(C(O)(c2ccccc2F)c2ccccc2F)nc2ccc(C(=O)NCCO)cc21	6.60 to 7.30
CCn1c(C(O)(c2ccccc2)c2ccccc2)nc2ccc(C(F)C#N)cc21 (stereo unspecified)	6.60 to 7.30
CCn1c(C(O)(c2ccccc2)c2ccccc2)nc2ccc(CC(CO)CO)cc21	6.60 to 7.30
CCC(O)CNC(=O)c1ccc2nc(C(O)(c3ccccc3)c3ccccc3)n(CC)c2c1 (stereo unspecified)	6.60 to 7.30
C=CCC1(c2ccc3nc(C(O)(c4ccccc4)c4ccccc4)n(CC)c3c2)COC1	6.60 to 7.30
CCn1c(C(O)(c2ccccc2)c2ccccc2)nc2ccc(CNC(=O)NC)cc21	6.60 to 7.30
CNC(=O)c1ccc2nc(C(O)(c3ccccc3)c3ccccc3)n(C3CC3)c2c1	6.00 to 6.60
CCc1cccc(OCc2ccc3nc(C(O)(c4ccccc4)c4ccccc4)n(CC)c3c2)c1	6.60 to 7.30
CCn1c(C(O)(c2ccccc2)c2ccccc2)nc2ccc(NC(=O)OC(C)(C)C)cc21	6.60 to 7.30

Structure (SMILES)	pIC50
CCn1c(C(O)(c2ccccc2)c2ccccc2)nc2ccc(C(=O)N(C)C)cc21	6.00 to 6.60
CNC(=O)c1ccc2nc(C(O)(c3ccc(F)cc3)c3ccc(F)cc3)n(C)c2c1	6.00 to 6.60
CNC(=O)c1ccc2nc(C(O)(c3ccccc3F)c3ccccc3F)n(C)c2c1	6.60 to 7.30
CCOc1ccc2nc(C(O)(c3ccccc3)c3ccccc3)n(CC)c2c1	6.00 to 6.60
CCn1c(C(O)(c2ccccc2)c2ccccc2)nc2ccc(C(=O)NC[C@@H](O)CO)cc21	6.60 to 7.30
CCn1c(C(O)(c2ccccc2)c2ccccc2)nc2ccc(C(=O)NCC3CCOCC3)cc21	6.60 to 7.30
CCn1c(C(O)(c2ccccc2)c2ccccc2)nc2cc(F)c(C(=O)NC)cc21	6.60 to 7.30
CCN1CC[C@@H](NC(=O)c2ccc3nc(C(O)(c4ccccc4)c4ccccc4)n(CC)c3c2)C1	6.60 to 7.30
CCn1c(C(O)(c2ccccc2)c2ccccc2)nc2ccc(C(=O)NC3CCN(C)CC3)cc21	6.00 to 6.60
CCn1c(C(O)(c2ccccc2F)c2ccccc2F)nc2ccc(C(=O)N[C@@H]3CCC(=O)N(C)C3)cc21	6.60 to 7.30
CCn1c(C(O)(c2ccccc2)c2ccccc2)nc2ccc(C(=O)N[C@@H]3CCC[C@@H](O)C3)cc21	6.60 to 7.30
CN1C[C@H](NC(=O)c2ccc3nc(C(O)(c4ccccc4)c4ccccc4)n(C)c3c2)CCC1=O	6.60 to 7.30
COc1ccc2c(c1)nc(C(O)(c1ccccc1)c1ccccc1)n2C	6.60 to 7.30
CCn1c(C(O)(c2ccccc2)c2ccccc2)nc2ccc(S(=O)(=O)CC)cc21	6.60 to 7.30
CCn1c(C(O)(c2ccccc2)c2ccccc2)nc2ccc(C(O)C(F)(F)F)cc21 (stereo unspecified)	6.60 to 7.30
CCn1c(C(O)(c2ccccc2)c2ccccc2)nc2cc(OCCO)ncc21	6.60 to 7.30
CCn1c(C(O)(c2ccccc2)c2ccc(F)cc2F)nc2ccc(C(=O)NC[C@@H](C)O)cc21 (stereo partly specified)	6.60 to 7.30
CCONC(=O)c1ccc2nc(C(O)(c3ccccc3)c3ccccc3)n(CC)c2c1	6.60 to 7.30
CCn1c(C(O)(c2ccccc2)c2ccccc2)nc2ccc(C(F)(F)C(=O)NC[C@@H](C)O)cc21	6.60 to 7.30
CCn1c(C(O)(c2ccccc2)c2ccccc2)nc2ccc(CNC(C)=O)cc21	6.60 to 7.30
CCn1c(C(O)(c2ccccc2)c2ccccc2)nc2ccc(NC(=O)COC)cc21	6.60 to 7.30
CCn1c(C(O)(c2ccccc2)c2ccccc2)nc2ccc(OCC(O)CO)cc21 (stereo unspecified)	6.00 to 6.60
CCOC(=O)C(F)(F)c1ccc2nc(C(O)(c3ccccc3)c3ccccc3)n(CC)c2c1	6.60 to 7.30
CCS(=O)(=O)c1ccc2nc(C(O)(c3ccccc3)c3ccccc3)n(C)c2c1	6.60 to 7.30

Structure (SMILES)	pIC50
CCn1c(C(O)(c2ccc(F)cc2)c2ccc(F)cc2)nc2ccc(C(=O)NC)cc21	6.00 to 6.60
CCn1c(C(O)(c2ccccc2)c2ccccc2)nc2ccc(CCO)cc21	6.60 to 7.30
CCn1c(C(O)(c2ccccc2)c2ccccc2)nc2ccc(CNC(=O)CO)cc21	6.60 to 7.30
CCn1c(C(O)(c2ccccc2)c2ccccc2)nc2ccc(CCC(=O)NC)cc21	6.60 to 7.30
Cn1ccc(NC(=O)c2ccc3nc(C(O)(c4ccccc4)c4ccccc4)n(CCO)c3c2)n1	6.60 to 7.30
CCn1c(C(O)(c2ccccc2)c2ccccc2)nc2ccc(Cl)cc21	6.00 to 6.60
CN1C[C@H](NC(=O)c2ccc3nc(C(O)(c4ccccc4F)c4ccccc4F)n(C)c3c2)CCC1=O	6.60 to 7.30
CCn1c(C(O)(c2ccccc2)c2ccccc2)nc2ccc(C(N)=O)cc21	6.60 to 7.30
CCn1c(C(O)(c2ccccc2)c2ccccc2)nc2ccc(C(=O)NC)c(F)c21	6.60 to 7.30
CCn1c(C(O)(c2ccccc2)c2ccccc2)nc2ccc(C(=O)Nc3cnn(CCO)c3)cc21	6.60 to 7.30
CCn1c(C(O)(c2ccccc2)c2ccccc2)nc2ccc(C(=O)N3CCC3)cc21	6.00 to 6.60
CCn1c(C(O)(c2ccccc2)c2ccccc2)nc2ccc(C(=O)NCC(O)COC)cc21 (stereo unspecified)	6.60 to 7.30
CCn1cc(-c2cc3c(cc2F)nc(C(O)(c2ccccc2)c2ccccc2)n3CC)cn1	6.60 to 7.30
CCn1c(C(O)(c2ccccc2)c2ccccc2)nc2ccc(CC(O)CO)cc21 (stereo unspecified)	6.60 to 7.30
CCn1c(C(O)(c2ccccc2)c2ccccc2)nc2ccc(CNC(=O)COC)cc21	6.60 to 7.30
CCn1c(C(O)(c2ccccc2)c2ccccc2)nc2c(F)cc(C(=O)NC[C@@H](C)O)cc21	6.60 to 7.30
Cn1c(C(O)(c2ccccc2)c2ccccc2)nc2ccc(S(C)(=O)=O)cc21	6.60 to 7.30
CCn1c(C(O)(c2ccccc2)c2ccccc2)nc2ccc(OCc3ccccc3)cc21	6.00 to 6.60
CCn1c(C(O)(c2ccccc2)c2ccccc2)nc2ccc(C(=O)NCC3CCNCC3)cc21	6.60 to 7.30
CCn1c(C(O)(c2ccccc2)c2ccccc2)nc2ccc(C(=O)NC3CCC3)cc21	6.00 to 6.60
CCn1c(C(O)(c2ccccc2F)c2ncccc2F)nc2ccc(CCCO)cc21 (stereo unspecified)	6.60 to 7.30
CCn1c(C(O)(c2ccccc2)c2ccccc2)nc2ccc(C(=O)NC(C)CO)cc21 (stereo unspecified)	6.00 to 6.60
CCn1c(C(O)(c2ccccc2)c2ccccc2)nc2ccc(C(=O)NC[C@H](O)CO)cc21	6.60 to 7.30
CCn1c(C(O)(c2ccccc2)c2ccccc2)nc2ccc(C(=O)NC3CCNC3)cc21 (stereo unspecified)	6.60 to 7.30

Structure (SMILES)	pIC50
CCn1c(C(O)(c2ccccc2)c2ccccc2)nc2ccc(C(=O)Nc3ccc(OC)cc3)cc21	6.60 to 7.30
CCn1c(C(O)(c2ccccc2)c2ccccc2O)nc2ccc(C(=O)NC[C@@H](C)O)cc21 (stereo partly specified)	6.60 to 7.30
CCn1c(C(O)(c2ccccc2)c2ccccc2)nc2ccc(N)cc21	6.60 to 7.30
CN1C[C@@H](NC(=O)c2ccc3nc(C(O)(c4ccccc4)c4ccccc4)n(C)c3c2)CCC1=O	6.60 to 7.30
CC(O)Cn1c(C(O)(c2ccccc2)c2ccccc2)nc2ccc(C(=O)NC[C@@H](C)O)cc21 (stereo partly specified)	6.60 to 7.30
CCn1c(C(O)(c2ccccc2)c2ccccc2)nc2ccc(C(=O)N[C@H]3CCC(=O)N(C)C3)cc21	6.60 to 7.30
CCn1c(C(O)(c2ccccc2)c2ccccc2)nc2ccc(OC)cc21	6.00 to 6.60
CCn1c(C(O)(c2ccccc2)c2ccccc2)nc2ccc(C(=O)Nc3cn(C)cn3)cc21	6.60 to 7.30
CC(C)Cn1c(C(O)(c2ccccc2)c2ccccc2)nc2ccc(C(=O)NC[C@@H](C)O)cc21	6.60 to 7.30
CCn1c(C(O)(c2ccccc2)c2ccccc2)nc2ccc(C(=O)NCCO)cc21	6.00 to 6.60
CCn1c(C(O)(c2ccccc2)c2ccccc2)nc2ccc(C(=O)NCC(F)(F)C(N)=O)cc21	6.60 to 7.30
CCn1c(C(O)(c2ccccc2F)c2ccccc2F)nc2ccc(C(=O)NCCO)cc21	6.60 to 7.30
CCn1c(C(O)(c2ccccc2)c2ccccc2)nc2ccc(C(=O)N3CC(O)C3)cc21	6.00 to 6.60
CCn1c(C(O)(c2ccccc2)c2ccccc2)nc2ccc(C(=O)NC3(C#N)CC3)cc21	6.60 to 7.30
CCn1c(C(O)(c2ccccc2)c2ccccc2)nc2ccc(C(=O)NC(C)C)cc21	6.00 to 6.60
CCn1c(C(O)(c2ccccc2)c2ccccc2)nc2c(F)cc(C(=O)NC)cc21	6.00 to 6.60
CCn1c(C(O)(c2ccc(F)cc2F)c2ccc(F)cc2F)nc2ccc(C(=O)NC)cc21	6.60 to 7.30
CCn1c(C(O)(c2ccccc2)c2ccccc2)nc2ccc(OCC(=O)N(C)C)cc21	6.00 to 6.60
CC(C)NC(=O)c1cccc(C(O)(c2ccccc2)c2nc3ccc(Cl)cc3n2C)c1 (stereo unspecified)	6.00 to 6.60
Cn1cc(NC(=O)c2ccc3nc(C(O)(c4ccccc4F)c4ccccc4F)n(CCO)c3c2)cn1	6.60 to 7.30
CCn1c(C(O)(c2ccccc2)c2ccccc2)nc2ccc(C(=O)NCCOC)cc21	6.00 to 6.60
CCn1c(C(O)(c2ccccc2)c2ccccc2)nc2ccc(C(=O)NCCN(C)C)cc21	6.00 to 6.60
CCn1c(C(O)(c2ccccc2F)c2ncccc2C)nc2ccc(CCCO)cc21 (stereo unspecified)	6.60 to 7.30
CCn1c(C(O)(c2ccccc2)c2ccc3cnn(C)c3c2)nc2ccc(C(=O)NC)cc21 (stereo unspecified)	6.60 to 7.30
